Laboratory results: patent publication US12624015B2, “JNK inhibitors as anticancer agents” (University of Iowa Research Foundation, priority 2019, dated 2026)
Like-named read-outs stand apart in the source and are kept apart here.

Tested on: A549 adenocarcinoma cell line
Test: In vitro antitumor screening, MTS assay
Format: cell-based
Conditions: Homo sapiens
Experimental: The synthesized derivatives were tested for their antitumor activity adopting MTS assay against A549 adenocarcinoma cell line following the reported assay method In Riss et al. Results are shown in Table 2.

[1] = A549 cell line, read-out: IC50, MTS assay against A549 cell line
[2] = A549 adenocarcinoma cell line, Table 2, read-out: IC50

SMILES	IC50 [1] [nM]	IC50 [2] [nM]
N#Cc1c(NC(=O)c2cccc(Br)c2)sc2c1CCCC2 [Compound 4]	7600	–
N#Cc1c(NCc2ccc(Br)cc2)sc2c1CCCC2 [Compound 10]	2700	2700
N#Cc1c(NC(=O)NCc2ccccc2)sc2c1CCCC2 [Compound 11]	1600	1600
